Experimental data as given in ChEMBL document CHEMBL1153480, “Study on the potential anti-cancer activity of phosphonium and ammonium-based ionic liquids” (2009).

Assays:
Format in all cases: functional
SF-539 [1] = assay: cells; conditions: Homo sapiens
Description: Growth inhibition of human SF539 cells assessed as drug level required for 50% reduction in net protein increase by SRB assay relative to control

SNB-19 [2] = assay: cells; conditions: Homo sapiens
Description: Growth inhibition of human SNB19 cells assessed as drug level required for 50% reduction in net protein increase by SRB assay relative to control

SK-MEL-2 [3] = assay: cells; conditions: Homo sapiens
Description: Growth inhibition of human SK-MEL-2 cells assessed as drug level required for 50% reduction in net protein increase by SRB assay relative to control

SK-MEL-28 [4] = assay: cells; conditions: Homo sapiens
Description: Growth inhibition of human SK-MEL-28 cells assessed as drug level required for 50% reduction in net protein increase by SRB assay relative to control

UACC-257 [5] = assay: cells; conditions: Homo sapiens
Description: Growth inhibition of human UACC257 cells assessed as drug level required for 50% reduction in net protein increase by SRB assay relative to control

OVCAR-8 = assay: cells; conditions: Homo sapiens
Description: Growth inhibition of human OVCAR8 cells assessed as drug level required for 50% reduction in net protein increase by SRB assay relative to control

UO-31 [6] = assay: cells; conditions: Homo sapiens
Description: Growth inhibition of human UO31 cells assessed as drug level required for 50% reduction in net protein increase by SRB assay relative to control

PC-3 [7] = assay: cells; conditions: Homo sapiens
Description: Growth inhibition of human PC3 cells assessed as drug level required for 50% reduction in net protein increase by SRB assay relative to control

DU-145 [8] = assay: cells; conditions: Homo sapiens
Description: Growth inhibition of human DU145 cells assessed as drug level required for 50% reduction in net protein increase by SRB assay relative to control

MDA-MB-231 [9] = assay: cells; conditions: Homo sapiens
Description: Growth inhibition of human MDA-MB-231 cells assessed as drug level required for 50% reduction in net protein increase by SRB assay relative to control

A498 = assay: cells; conditions: Homo sapiens
Description: Growth inhibition of human A498 cells assessed as cell growth at 10 uM by SRB assay

T47D = assay: cells; conditions: Homo sapiens
Description: Growth inhibition of human T47D cells assessed as drug level required for 50% reduction in net protein increase by SRB assay relative to control

MDA-MB-468 [10] = assay: cells; conditions: Homo sapiens
Description: Growth inhibition of human MDA-MB-468 cells assessed as drug level required for 50% reduction in net protein increase by SRB assay relative to control

K562 [11] = assay: Cytotoxicity against human K562 cells by SRB assay; conditions: read-out: LC50 (the source's name)
MOLT-4 [12] = assay: Cytotoxicity against human MOLT4 cells by SRB assay; conditions: read-out: LC50 (the source's name)
A549 = assay: Cytotoxicity against human A549 cells by SRB assay; conditions: read-out: LC50 (the source's name)
NCI-H23 [13] = assay: Cytotoxicity against human NCI-H23 cells by SRB assay; conditions: read-out: LC50 (the source's name)
NCI-H460 [14] = assay: Cytotoxicity against human NCI-H460 cells by SRB assay; conditions: read-out: LC50 (the source's name)
NCI-H522 = assay: Cytotoxicity against human NCI-H522 cells by SRB assay; conditions: read-out: LC50 (the source's name)
HCT-116 = assay: Cytotoxicity against human HCT116 cells by SRB assay; conditions: read-out: LC50 (the source's name)
HT-29 [15] = assay: Cytotoxicity against human HT-29 cells by SRB assay; conditions: read-out: LC50 (the source's name)
KM12 [16] = assay: Cytotoxicity against human KM12 cells by SRB assay; conditions: read-out: LC50 (the source's name)
SNB-19 [17] = assay: Cytotoxicity against human SNB19 cells by SRB assay; conditions: read-out: LC50 (the source's name)
SNB-75 = assay: Cytotoxicity against human SNB75 cells by SRB assay; conditions: read-out: LC50 (the source's name)
Malme-3M = assay: Cytotoxicity against human MALME-3M cells by SRB assay; conditions: read-out: LC50 (the source's name)
M14 = assay: Cytotoxicity against human M14 cells by SRB assay; conditions: read-out: LC50 (the source's name)
SK-MEL-2 [18] = assay: Cytotoxicity against human SK-MEL-2 cells by SRB assay; conditions: read-out: LC50 (the source's name)
IGROV-1 = assay: Cytotoxicity against human IGROV1 cells by SRB assay; conditions: read-out: LC50 (the source's name)
OVCAR-3 = assay: Cytotoxicity against human OVCAR-3 cells by SRB assay; conditions: read-out: LC50 (the source's name)
ACHN = assay: cells; conditions: Homo sapiens
Description: Growth inhibition of human ACHN cells assessed as cell growth at 10 uM by SRB assay

cells = conditions: Homo sapiens, CAKI
Description: Growth inhibition of human CAKI cells assessed as cell growth at 10 uM by SRB assay

TK-10 = assay: cells; conditions: Homo sapiens
Description: Growth inhibition of human TK10 cells assessed as cell growth at 10 uM by SRB assay

UO-31 [19] = assay: cells; conditions: Homo sapiens; remark: listed apart in the source
Description: Growth inhibition of human UO31 cells assessed as cell growth at 10 uM by SRB assay

PC-3 [20] = assay: cells; conditions: Homo sapiens; remark: listed apart in the source
Description: Growth inhibition of human PC3 cells assessed as cell growth at 10 uM by SRB assay

DU-145 [21] = assay: cells; conditions: Homo sapiens; remark: listed apart in the source
Description: Growth inhibition of human DU145 cells assessed as cell growth at 10 uM by SRB assay

MCF7 [22] = assay: cells; conditions: Homo sapiens
Description: Growth inhibition of human MCF7 cells assessed as cell growth at 10 uM by SRB assay

NCI/ADR-RES = assay: cells; conditions: Homo sapiens
Description: Growth inhibition of human NCI/ADR-RES cells assessed as cell growth at 10 uM by SRB assay

MDA-MB-231 [23] = assay: cells; conditions: Homo sapiens; remark: listed apart in the source
Description: Growth inhibition of human MDA-MB-231 cells assessed as cell growth at 10 uM by SRB assay

MDA-MB-435 [24] = assay: cells; conditions: Homo sapiens
Description: Growth inhibition of human MDA-MB-435 cells assessed as cell growth at 10 uM by SRB assay

HT-29 [25] = assay: cells; conditions: Homo sapiens
Description: Growth inhibition of human HT-29 cells assessed as drug level required for 50% reduction in net protein increase by SRB assay relative to control

HCT-15 [26] = assay: cells; conditions: Homo sapiens
Description: Growth inhibition of human HCT15 cells assessed as drug level required for 50% reduction in net protein increase by SRB assay relative to control

HCC 2998 [27] = assay: cells; conditions: Homo sapiens
Description: Growth inhibition of human HCC2998 cells assessed as drug level required for 50% reduction in net protein increase by SRB assay relative to control

NCI-H460 [28] = assay: cells; conditions: Homo sapiens
Description: Growth inhibition of human NCI-H460 cells assessed as drug level required for 50% reduction in net protein increase by SRB assay relative to control

UO-31 [29] = assay: Cytotoxicity against human UO31 cells by SRB assay; conditions: read-out: LC50 (the source's name)
PC-3 [30] = assay: Cytotoxicity against human PC3 cells by SRB assay; conditions: read-out: LC50 (the source's name)
MCF7 [31] = assay: Cytotoxicity against human MCF7 cells by SRB assay; conditions: read-out: LC50 (the source's name)
MDA-MB-435 [32] = assay: Cytotoxicity against human MDA-MB-435 cells by SRB assay; conditions: read-out: LC50 (the source's name)
BT-549 = assay: Cytotoxicity against human BT549 cells by SRB assay; conditions: read-out: LC50 (the source's name)
K562 [33] = assay: cells; conditions: Homo sapiens
Description: Growth inhibition of human K562 cells assessed as cell growth at 10 uM by SRB assay

MOLT-4 [34] = assay: cells; conditions: Homo sapiens
Description: Growth inhibition of human MOLT4 cells assessed as cell growth at 10 uM by SRB assay

SR = assay: cells; conditions: Homo sapiens
Description: Growth inhibition of human SR cells assessed as cell growth at 10 uM by SRB assay

HOP-92 [35] = assay: cells; conditions: Homo sapiens
Description: Growth inhibition of human HOP92 cells assessed as cell growth at 10 uM by SRB assay

NCI-H23 [36] = assay: cells; conditions: Homo sapiens
Description: Growth inhibition of human NCI-H23 cells assessed as cell growth at 10 uM by SRB assay

NCI-H322M = assay: cells; conditions: Homo sapiens
Description: Growth inhibition of human NCI-H322M cells assessed as cell growth at 10 uM by SRB assay

HCC 2998 [37] = assay: cells; conditions: Homo sapiens; remark: listed apart in the source
Description: Growth inhibition of human HCC2998 cells assessed as cell growth at 10 uM by SRB assay

HCT-15 [38] = assay: cells; conditions: Homo sapiens; remark: listed apart in the source
Description: Growth inhibition of human HCT15 cells assessed as cell growth at 10 uM by SRB assay

KM12 [39] = assay: cells; conditions: Homo sapiens
Description: Growth inhibition of human KM12 cells assessed as cell growth at 10 uM by SRB assay

SF-295 = assay: cells; conditions: Homo sapiens
Description: Growth inhibition of human SF295 cells assessed as cell growth at 10 uM by SRB assay

NCI-H23 [40] = assay: cells; conditions: Homo sapiens; remark: listed apart in the source
Description: Growth inhibition of human NCI-H23 cells assessed as drug level required for 50% reduction in net protein increase by SRB assay relative to control

HOP-92 [41] = assay: cells; conditions: Homo sapiens; remark: listed apart in the source
Description: Growth inhibition of human HOP92 cells assessed as drug level required for 50% reduction in net protein increase by SRB assay relative to control

HL-60(TB) = assay: cells; conditions: Homo sapiens
Description: Growth inhibition of human HL-60(TB) cells assessed as drug level required for 50% reduction in net protein increase by SRB assay relative to control

MDA-MB-468 [42] = assay: cells; conditions: Homo sapiens; remark: listed apart in the source
Description: Growth inhibition of human MDA-MB-468 cells assessed as cell growth at 10 uM by SRB assay

SF-539 [43] = assay: cells; conditions: Homo sapiens; remark: listed apart in the source
Description: Growth inhibition of human SF539 cells assessed as cell growth at 10 uM by SRB assay

SNB-19 [44] = assay: cells; conditions: Homo sapiens; remark: listed apart in the source
Description: Growth inhibition of human SNB19 cells assessed as cell growth at 10 uM by SRB assay

U-251 = assay: cells; conditions: Homo sapiens
Description: Growth inhibition of human U251 cells assessed as cell growth at 10 uM by SRB assay

SK-MEL-28 [45] = assay: cells; conditions: Homo sapiens; remark: listed apart in the source
Description: Growth inhibition of human SK-MEL-28 cells assessed as cell growth at 10 uM by SRB assay

SK-MEL-5 = assay: cells; conditions: Homo sapiens
Description: Growth inhibition of human SK-MEL-5 cells assessed as cell growth at 10 uM by SRB assay

UACC-257 [46] = assay: cells; conditions: Homo sapiens; remark: listed apart in the source
Description: Growth inhibition of human UACC257 cells assessed as cell growth at 10 uM by SRB assay

UACC-62 = assay: cells; conditions: Homo sapiens
Description: Growth inhibition of human UACC62 cells assessed as cell growth at 10 uM by SRB assay

OVCAR-5 = assay: cells; conditions: Homo sapiens
Description: Growth inhibition of human OVCAR5 cells assessed as cell growth at 10 uM by SRB assay

SK-OV-3 = assay: cells; conditions: Homo sapiens
Description: Growth inhibition of human SKOV3 cells assessed as cell growth at 10 uM by SRB assay

786-0 = assay: cells; conditions: Homo sapiens
Description: Growth inhibition of human 786-0 cells assessed as cell growth at 10 uM by SRB assay

## CCCCCCCCCCCCCCCCCCPCCCCCCCCCCCCCC.O=S(=O)(NS(=O)(=O)C(F)(F)F)C(F)(F)F (configuration not stated)
SF-539 [1]
  GI50: 174 nM
SNB-19 [2]
  GI50: 69 nM
SK-MEL-2 [3]
  GI50: 27 nM
SK-MEL-28 [4]
  GI50: 207 nM
UACC-257 [5]
  GI50: 103 nM
OVCAR-8
  GI50: 86 nM
UO-31 [6]
  GI50: 350 nM
PC-3 [7]
  GI50: 45 nM
DU-145 [8]
  GI50: 156 nM
MDA-MB-231 [9]
  GI50: 56 nM
A498
  growth at 10 µM: -48.3%
T47D
  GI50: 73 nM
MDA-MB-468 [10]
  GI50: 36 nM
K562 [11]
  CC50: > 100000 nM
MOLT-4 [12]
  CC50: > 100000 nM
A549
  CC50: > 100000 nM
NCI-H23 [13]
  CC50: > 100000 nM
NCI-H460 [14]
  CC50: > 100000 nM
NCI-H522
  CC50: > 100000 nM
HCT-116
  CC50: > 100000 nM
HT-29 [15]
  CC50: > 100000 nM
KM12 [16]
  CC50: > 100000 nM
SNB-19 [17]
  CC50: > 100000 nM
SNB-75
  CC50: > 100000 nM
Malme-3M
  CC50: 5380 nM
M14
  CC50: > 100000 nM
SK-MEL-2 [18]
  CC50: > 100000 nM
IGROV-1
  CC50: > 100000 nM
OVCAR-3
  CC50: 6760 nM
ACHN
  growth at 10 µM: -26%
cells
  growth at 10 µM: 4.01%
TK-10
  growth at 10 µM: -43.3%
UO-31 [19]
  growth at 10 µM: -36.6%
PC-3 [20]
  growth at 10 µM: -78.1%
DU-145 [21]
  growth at 10 µM: -100%
MCF7 [22]
  growth at 10 µM: -51.8%
NCI/ADR-RES
  growth at 10 µM: -10.5%
MDA-MB-231 [23]
  growth at 10 µM: -38.3%
MDA-MB-435 [24]
  growth at 10 µM: -81%
HT-29 [25]
  GI50: 53 nM
HCT-15 [26]
  GI50: 291 nM
HCC 2998 [27]
  GI50: 240 nM
NCI-H460 [28]
  GI50: 315 nM
UO-31 [29]
  CC50: > 100000 nM
PC-3 [30]
  CC50: 5900 nM
MCF7 [31]
  CC50: > 100000 nM
MDA-MB-435 [32]
  CC50: 19800 nM
BT-549
  CC50: > 100000 nM
K562 [33]
  growth at 10 µM: 39%
MOLT-4 [34]
  growth at 10 µM: 51.6%
SR
  growth at 10 µM: 62.4%
HOP-92 [35]
  growth at 10 µM: -67.1%
NCI-H23 [36]
  growth at 10 µM: -39.3%
NCI-H322M
  growth at 10 µM: -11.9%
HCC 2998 [37]
  growth at 10 µM: -24.4%
HCT-15 [38]
  growth at 10 µM: 7.54%
KM12 [39]
  growth at 10 µM: -100%
SF-295
  growth at 10 µM: -68.4%
NCI-H23 [40]
  GI50: 192 nM
HOP-92 [41]
  GI50: 30 nM
HL-60(TB)
  GI50: 46 nM
MDA-MB-468 [42]
  growth at 10 µM: -88.3%
SF-539 [43]
  growth at 10 µM: 5.67%
SNB-19 [44]
  growth at 10 µM: 8.99%
U-251
  growth at 10 µM: -68.4%
SK-MEL-28 [45]
  growth at 10 µM: -97.8%
SK-MEL-5
  growth at 10 µM: -100%
UACC-257 [46]
  growth at 10 µM: -34.6%
UACC-62
  growth at 10 µM: -28.1%
OVCAR-5
  growth at 10 µM: -7.29%
SK-OV-3
  growth at 10 µM: -3.34%
786-0
  growth at 10 µM: -65.8%
